Data from patent US20150274719A1, “AMINO-SUBSTITUTED IMIDAZO[1,2-A]PYRIDINECARBOXAMIDES AND THEIR USE” (BAYER PHARMA AKTIENGESELLSCHAFT, priority 2012, published 2015).

biological target: T1, recombinant guanylate cyclase reporter cell line (Rattus norvegicus, UniProt P19686+P20595); experiment: Action on recombinant guanylate cyclase reporter cell line; type: cell-based; details: in some cases mean values from individual determinations
T1 construct: expressed in transfected cells; host or cells: recombinant reporter cell line
T1 sequence (P19686 1-690): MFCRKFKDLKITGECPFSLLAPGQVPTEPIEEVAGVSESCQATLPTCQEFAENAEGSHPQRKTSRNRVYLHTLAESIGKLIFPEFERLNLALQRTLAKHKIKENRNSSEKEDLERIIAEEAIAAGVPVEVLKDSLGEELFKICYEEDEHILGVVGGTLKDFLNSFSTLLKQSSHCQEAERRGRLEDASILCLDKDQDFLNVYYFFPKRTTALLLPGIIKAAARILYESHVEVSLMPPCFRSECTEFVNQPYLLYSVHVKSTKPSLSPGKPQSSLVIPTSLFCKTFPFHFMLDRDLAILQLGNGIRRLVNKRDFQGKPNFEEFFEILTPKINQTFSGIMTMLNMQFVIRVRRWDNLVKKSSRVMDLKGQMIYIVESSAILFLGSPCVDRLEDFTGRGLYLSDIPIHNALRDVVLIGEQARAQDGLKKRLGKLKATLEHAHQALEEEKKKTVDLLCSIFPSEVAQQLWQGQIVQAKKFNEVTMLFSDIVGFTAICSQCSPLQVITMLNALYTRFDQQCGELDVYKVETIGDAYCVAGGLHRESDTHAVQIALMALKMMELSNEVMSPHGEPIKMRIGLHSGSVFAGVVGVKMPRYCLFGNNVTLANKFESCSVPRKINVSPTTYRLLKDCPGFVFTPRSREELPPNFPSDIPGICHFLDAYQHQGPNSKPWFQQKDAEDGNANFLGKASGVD
T1 sequence (P20595 1-619): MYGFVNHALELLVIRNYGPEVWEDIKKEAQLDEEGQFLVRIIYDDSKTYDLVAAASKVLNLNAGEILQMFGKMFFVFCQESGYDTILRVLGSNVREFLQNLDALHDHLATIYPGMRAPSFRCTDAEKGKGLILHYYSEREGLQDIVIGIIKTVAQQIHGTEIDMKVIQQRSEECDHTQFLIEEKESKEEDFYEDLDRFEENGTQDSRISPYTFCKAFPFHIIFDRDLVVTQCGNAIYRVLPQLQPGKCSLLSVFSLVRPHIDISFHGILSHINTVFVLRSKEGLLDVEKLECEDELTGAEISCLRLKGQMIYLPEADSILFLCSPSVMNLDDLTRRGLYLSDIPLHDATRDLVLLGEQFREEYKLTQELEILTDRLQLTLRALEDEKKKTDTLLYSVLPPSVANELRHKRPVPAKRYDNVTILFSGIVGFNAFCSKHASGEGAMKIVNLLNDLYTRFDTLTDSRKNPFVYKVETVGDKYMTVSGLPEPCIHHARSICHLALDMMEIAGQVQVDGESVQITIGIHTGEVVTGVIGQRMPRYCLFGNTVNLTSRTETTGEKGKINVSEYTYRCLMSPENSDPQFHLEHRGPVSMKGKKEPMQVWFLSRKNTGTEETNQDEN
Summary of the method: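 Read-out: MEC (minimal effective concentration) in cells. Reporter line carries recombinant sGC. Some values are averages of single runs.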

SMILES	MEC (minimal effective concentration) [µM]
CCCC(C)(N)CNC(=O)c1c(C)nc2c(OCc3c(F)ccc(OC)c3F)cc(C)cn12 (stereo not drawn) [Example 364, ent-N-(2-amino-2-methylpentyl)-8-[(2,6-difluoro-3-methoxybenzyl)oxy]-2,6-dimethylimidazo[1,2-a]pyridine-3-carboxamide]	0.30
Cc1nc2c(OCc3c(F)cccc3F)cccn2c1C(=O)NC12CNCCC1C2 (racemic) [Example 125, rac-N-(3-Azabicyclo[4.1.0]hept-1-yl)-8-[(2,6-difluorobenzyl)oxy]-2-methylimidazo[1,2-a]-pyridine-3-carboxamide]	1.00
Cc1nc2c(OCc3c(F)cccc3F)cc(Cl)cn2c1C(=O)NCC(C)(N)CC(C)C (single isomer, unassigned) [Example 226, ent-N-(2-Amino-2,4-dimethylpentyl)-6-chloro-8-[(2,6-difluorobenzyl)oxy]-2-methylimidazo[1,2-a]pyridine-3-carboxamide]	0.10
Cc1nc2c(OCc3c(F)cccc3F)cccn2c1C(=O)NC(C)[C@@H](C)N (single isomer, unassigned) [Example 177]	1.00
Cc1cc(OCc2c(F)cccc2F)c2nc(C)c(C(=O)NC(CN)c3cnn(C)c3)n2c1 (racemic) [Example 387, rac-N-[2-amino-1-(1-methyl-1H-pyrazol-4-yl)ethyl]-8-[(2,6-difluorobenzyl)oxy]-2,6-dimethylimidazo[1,2-a]pyridine-3-carboxamide]	10.0
Cc1nc2c(OCc3c(F)cccc3F)cccn2c1C(=O)NC(C)[C@H](C)N (stereo partly drawn) [Example 120, N-[(3S)-3-Aminobutan-2-yl]-8-[(2,6-difluorobenzyl)oxy]-2-methylimidazo[1,2-a]pyridine-3-carboxamide]	0.30
Cc1nc2c(OCc3c(F)cccc3F)cccn2c1C(=O)N[C@@H](C)CN1CCOCC1 [Example 171, 8-[(2,6-difluorobenzyl)oxy]-2-methyl-N-[(2S)-1-(morpholin-4-yl)propan-2-yl]imidazo[1,2-a]-pyridine-3-carboxamide]	1.00
Cc1nc2c(OCc3c(F)cccc3F)cccn2c1C(=O)NC1CNCc2ccccc21 (single isomer, unassigned; ent-8) [Example 110, ent-8-[(2,6-difluorobenzyl)oxy]-2-methyl-N-(1,2,3,4-tetrahydroisoquinolin-4-yl)imidazo[1,2-a]pyridine-3-carboxamide]	0.30
Cc1nc2c(OCc3c(F)cccc3F)cccn2c1C(=O)NC(CN)CCCC(F)(F)F (single isomer, unassigned; enantiomer b) [Example 6, ent-N-(1-Amino-6,6,6-trifluorohexan-2-yl)-8-[(2,6-difluorobenzyl)oxy]-2-methylimidazo[1,2-a]-pyridine-3-carboxamide (Enantiomer B)]	0.23
Cc1cc(OCc2c(F)cccc2F)c2nc(C)c(C(=O)NCC(N)c3cc(F)c(F)c(F)c3)n2c1 (racemic) [Example 374, rac-N-[2-amino-2-(3,4,5-trifluorophenyl)ethyl]-8-[(2,6-difluorobenzyl)oxy]-2,6-dimethylimidazo[1,2-a]pyridine-3-carboxamide]	1.00
CCC(C)(N)CNC(=O)c1c(C)nc2c(OCc3c(F)cccc3F)cc(Cl)cn12 (single isomer, unassigned) [Example 195, ent-N-(2-Amino-2-methylbutyl)-6-chloro-8-[(2,6-difluorobenzyl)oxy]-2-methylimidazo[1,2-a]-pyridine-3-carboxamide]	0.30
Cc1nc2c(OCc3c(F)cccc3F)cc(Cl)cn2c1C(=O)NCC1(N)CCCC1 [Example 42, N-[(1-aminocyclopentyl)methyl]-6-chloro-8-[(2,6-difluorobenzyl)oxy]-2-methylimidazo[1,2-a]pyridine-3-carboxamide]	1.00
Cc1cc(OCc2c(F)cccc2F)c2nc(C)c(C(=O)NC(CN)c3cccc(OC(F)F)c3)n2c1 (racemic) [Example 392, rac-N-{2-amino-1-[3-(difluoromethoxy)phenyl]ethyl}-8-[(2,6-difluorobenzyl)oxy]-2,6-dimethylimidazo[1,2-a]pyridine-3-carboxamide]	1.00
NCC(NC(=O)c1c(C2CC2)nc2c(OCc3c(F)cccc3F)cccn12)c1ccc(F)c(F)c1 (stereo not drawn) [Example 54, ent-N-[2-amino-1-(3,4-difluorophenyl)ethyl]-2-cyclopropyl-8-[(2,6-difluorobenzyl)oxy]-imidazo[1,2-a]pyridine-3-carboxamide]	1.00
COCC(C)(N)CNC(=O)c1c(C)nc2c(OCc3c(F)cccc3F)cc(Cl)cn12 (single isomer, unassigned) [Example 196, ent-N-(2-Amino-3-methoxy-2-methylpropyl)-6-chloro-8-[(2,6-difluorobenzyl)oxy]-2-methylimidazo[1,2-a]pyridine-3-carboxamide]	1.00
CCC(C)(N)CNC(=O)c1c(C)nc2c(OCc3c(F)cccc3F)cc(Cl)cn12 (racemic) [Example 157, rac-N-(2-amino-2-methylbutyl)-6-chloro-8-[(2,6-difluorobenzyl)oxy]-2-methylimidazo[1,2-a]-pyridine-3-carboxamide]	0.30
Cc1cc(OCc2c(F)cccc2F)c2nc(C)c(C(=O)NC3CNCC(F)(F)C3)n2c1 (racemic) [Example 312, rac-8-[(2,6-difluorobenzyl)oxy]-N-(5,5-difluoropiperidin-3-yl)-2,6-dimethylimidazo[1,2-a]pyridine-3-carboxamide]	0.30
Cc1nc2c(OCc3c(F)cccc3F)cccn2c1C(=O)NC(CN1CCOCC1)c1ccccc1 (single isomer, unassigned; ent-8) [Example 183, ent-8-[(2,6-Difluorobenzyl)oxy]-2-methyl-N-[2-(morpholin-4-yl)-1-phenylethyl]imidazo[1,2-a]-pyridine-3-carboxamide]	1.00
Cc1cc(OCc2c(F)cccc2F)c2nc(C)c(C(=O)NC3CCC3N)n2c1 (single isomer, unassigned; enantiomer b) [Example 329, ent-N-(2-aminocyclobutyl)-8-[(2,6-difluorobenzyl)oxy]-2,6-dimethylimidazo[1,2-a]pyridine-3-carboxamide (Enantiomer B)]	0.30
Cc1nc2c(OCC3CCCCC3)cccn2c1C(=O)NC(CN)c1ccc(F)c(F)c1 (single isomer, unassigned) [Example 178, ent-N-[2-Amino-1-(3,4-difluorophenyl)ethyl]-8-(cyclohexylmethoxy)-2-methylimidazo[1,2-a]-pyridine-3-carboxamide]	0.30
Cc1nc2c(OCc3c(F)cccc3F)cccn2c1C(=O)NCCN(C(C)C)C(C)C [Example 88, 8-[(2,6-difluorobenzyl)oxy]-N-[2-(diisopropyl-amino)ethyl]-2-methylimidazo[1,2-a]pyridine-3-carboxamide]	1.00
CCC(C)(N)CNC(=O)c1c(C)nc2c(OCc3c(F)cccc3F)cc(CF)cn12 (stereo not drawn) [Example 404]	0.30
Cc1nc2c(OCc3c(F)cccc3F)cc(Cl)cn2c1C(=O)NCCN1C[C@@H](C)O[C@@H](C)C1 [Example 158, 6-chloro-8-[(2,6-difluorobenzyl)oxy]-N-{2-[(2R,6S)-2,6-dimethylmorpholin-4-yl]ethyl}-2-methylimidazo[1,2-a]pyridine-3-carboxamide]	0.30
CCCC(C)(N)CNC(=O)c1c(C)nc2c(OCc3ccccc3Br)cc(C)cn12 (stereo not drawn) [Example 353, N-(2-amino-2-methylpentyl)-8-[(2-bromobenzyl)oxy]-2,6-dimethylimidazo[1,2-a]pyridine-3-carboxamide]	3.00
